Test results published in PMC5789597, “Cytotoxicity of seputhecarpan D, thonningiol and 12 other phytochemicals from African flora towards human carcinoma cells” (BMC Complementary and Alternative Medicine, 2018).
Like-named read-outs stand apart in the source and are kept apart here.

What was measured:
[1] = test system: MCF-7 breast adenocarcinoma cells; assay: Neutral red (NR) uptake cytotoxicity assay, MCF7; format: cell-based, human; conditions: for IC50: Homo sapiens, MCF7, NR assay, 72 h incubation; for selectivity index, MCF7: IC50 in CRL2120 normal fibroblasts divided by IC50 in MCF7
From the text: (§1) DMSO at 0.1% was used as solvent control.

[2] = test system: normal CRL2120 human skin fibroblasts; assay: Neutral red (NR) uptake cytotoxicity assay, normal fibroblasts; format: cell-based; conditions: Skin fibroblast, 72 h incubation
From the text: as §1

[3] = test system: DLD-1 colorectal adenocarcinoma cells; assay: Neutral red (NR) uptake cytotoxicity assay, DLD-1; format: cell-based, human; conditions: for IC50: Homo sapiens, DLD-1, NR assay, 72 h incubation; for selectivity index, DLD-1: IC50 in CRL2120 normal fibroblasts divided by IC50 in DLD-1
From the text: as §1

[4] = Neutral red (NR) uptake cytotoxicity assay, Caco-2; conditions: human, Caco-2
From the text: (§3) Four human carcinoma cell lines and one normal cell line were used. They were: DLD-1 and Caco-2 colorectal adenocarcinoma cell lines, HepG2 hepatocarcinoma cells, MCF-7 breast adenocarcinoma cells and the normal CRL2120 human skin fibroblasts. Caco-2 cells (from the ŞAP Institute of Ankara,Turkey andMCF-7 cells (from ATCC) provided by Prof. Dr. Tansu Koparal (Anadolu University, Eskisehir, Turkey),HepG2, DLD-1 and CRL2120 cells were obtained from American Type Culture Collection (ATCC); DMEM medium (Sigma-aldrich, Munich, Germany) was used to maintain cells as a monolayer and was supplemented with 10% fetal calf serum and 1% penicillin (100 U/mL)-streptomycin (100 μg/mL) in a humidified 5% CO2 atmosphere at 37 °C.
(§4) Dimethylsufoxide (DMSO) at less than 0.1% final concentration was used to dilute the tested samples. DMSO at 0.1% was used as solvent control. The incubation time was 72 h incubation in humidified 5% CO2 atmosphere at 37 °C, followed by NR coloration as previously described [23, 24]. ELx 808 Ultra Microplate Reader (Biotek) equipped with a 540 nm filter was used to measure the absorbance. Each experiment was performed at least three times, with three replicates each. The viability was evaluated based on a comparison with untreated cells. The IC50 values represented the sample’s concentrations required to inhibit 50% of cell proliferation and were calculated from a calibration curve by linear regression using Microsoft Excel [26] as follows: for each sample, the cell growth percentages at the different concentrations were used to draw the calibration curve with logarithmic regression obtained by 2 measuring points (one smaller and one larger than 50%) from where the IC50 value was deduced.

[5] = test system: Caco-2 colorectal adenocarcinoma cells; assay: Neutral red (NR) uptake cytotoxicity assay, Caco-2; conditions: read-out: IC50 values, Caco-2
From the text: as §3, §4

[6] = test system: HepG2 hepatocarcinoma cells; assay: Neutral red (NR) uptake cytotoxicity assay, HepG2; format: cell-based, human; conditions: for IC50: Homo sapiens, HepG2, NR assay, 72 h incubation; for selectivity index, HepG2: IC50 in CRL2120 normal fibroblasts divided by IC50 in HepG2
From the text: as §1

[7] = in vitro; conditions: human, Caco-2
From the text: as §3, §4

[8] = test system: four tested cancer cell lines (MCF-7, DLD-1, Caco-2, HepG2); assay: Neutral red (NR) uptake cytotoxicity assay, summary over the four tested cancer cell lines; format: cell-based; conditions: Homo sapiens
From the text: as §1

[9] = test system: caspase 9 in MCF-7 cells; assay: Caspase-Glo 9 assay; format: cell-based, human; conditions: MCF-7, 6 h, optimal activity generally at IC50, vs untreated control
From the text: (§2) The BioTek Synergy™ HT multi-detection microplate reader was used to measure the luminescence and Caspase activity was expressed as percentage of the untreated control.

[10] = test system: MCF-7 cells; assay: Cell cycle analysis and detection of apoptosis by flow cytometry; format: cell-based, human; conditions: for percentages of cells in sub-G0/G1 phase: MCF-7, 2 × IC50 (as printed in text); for percentages of cells in sub-G0/G1 phase / Growth (percentage of control) Sub-G0; percentage of cells in sub-G0/G1 phase: non-treated cells 3.1%; for Growth (percentage of control) Sub-G0; percentage of cells in sub-G0/G1 phase: MCF-7, 72 h, ¼ x IC50; for cell cycle arrest (phase): MCF-7 cells, 72 h
Experimental: Cells were tested in 6-well plates (3 mL, 1 × 10^5 cells/mL) and the incubation time was 72 h in humidified 5% CO2 atmosphere at 37 °C. […] Untreated cells (control) were used for comparison with treated cells. The BD FACS Aria I Cell Sorter Flow Cytometer (Becton-Dickinson, Germany) was then used for cell cycle analysis. For each sample, 10^4 cells were counted. For PI excitation, an argon-ion laser emitting at 488 nm was used. Cytographs were analyzed using BD FACSDiva™ Flow Cytometry Software Version 6.1.2 (Becton-Dickinson).

[11] = test system: caspases 3/7 in MCF-7 cells; assay: Caspase-Glo 3/7 assay; format: cell-based, human; conditions: MCF-7, 6 h, optimal activity generally at IC50, vs untreated control
From the text: as §2

[12] = test system: MCF-7 cells; assay: Reactive oxygen species production (H2DCFH-DA); format: cell-based, human; conditions: MCF-7, 24 h, at IC50, compared to non-treated cells
Experimental: Cells were tested in 6-well plates (3 mL, 1 × 10^5 cells/mL) and the incubation time was 24 h in humidified 5% CO2 atmosphere at 37 °C. The tested concentrations were ¼ × IC50, ½ × IC50 and IC50. Untreated cells (control) were used for comparison with treated cells. The fluorescence was measured using SpectraMax® M5 Microplate Reader (Molecular Devices, Biberach, Germany) at 480/530 nm. All experiments were performed at least in triplicates.

[13] = test system: MCF-7 cells; assay: Integrity of mitochondrial membrane potential (JC-1 staining, flow cytometry); format: cell-based, human; conditions: MCF-7, 72 h, IC50; control 6.0%
Experimental: Cells were tested in 6-well plates (3 mL, 1 × 10^5 cells/mL) and the incubation time was 72 h in humidified 5% CO2 atmosphere at 37 °C. The tested concentrations were ¼ × IC50, ½ × IC50 and IC50. Untreated cells (control) were used for comparison with treated cells. JC-1 staining was performed according to the manufacturer’s protocol as reported previously. Cells were then measured in a BD FACS Aria I Cell Sorter Flow Cytometer (Becton-Dickinson, Germany). The JC-1 signal was measured at an excitation wavelength of 561 nm (150 mW) and detected using a 586/15 nm band-pass filter. The signal was analyzed at an excitation wavelength of 640 nm (40 mW) and detected using a 730/45 nm bandpass filter. Cytographs were analyzed using BD FACSDiva™ Flow Cytometry Software Version 6.1.2 (Becton-Dickinson). All experiments were performed at least in triplicates.

[14] = all 4/4 tested cancer cell lines, read-out: IC50 values against the four tested cancer cell lines

SMILES	IC50 [1]	IC50 [2]	IC50 [3]	selectivity ratio at 72 h [4]	IC50 ([5]; Homo sapiens, Caco-2, 72 h)	IC50 [6]	selectivity index, MCF7 [1]	selectivity ratio at 72 h [7]	IC50 [8, 14]	selectivity index, DLD-1 [3]	selectivity index, HepG2 [6]	increase of caspase 9 activity [9]	percentages of cells in sub-G0/G1 phase [10]	Growth (percentage of control) Sub-G0; percentage of cells in sub-G0/G1 phase [10]	cell cycle arrest (phase) [10]	increase of caspases 3/7 activity [11]	increase in ROS levels [12]	P2: cells with altered MMP (MMP depletion) [13]	IC50 ([8]; 3/4 tested cancer cell lines, read-out: IC50 values in 3/4 tested cell lines)	IC50 ([5]; NR assay, 72 h incubation)
CCC(/C=C/[C@@H](C)C1CCC2C3=CCC4C[C@@H](O)CCC4(C)C3CCC21C)C(C)C (stereo partly drawn) [Compound 1, β-spinasterol]	> 97.1 µM	> 97.1 µM	> 97.1 µM	> 1.39	69.8 ± 5.12 µM	> 97.1 µM														
C[C@H]1C(=O)CC[C@@H]2[C@]1(C)CC[C@H]1[C@@]2(C)CC[C@@]2(C)[C@@H]3CC(C)(C)CC[C@]3(C)CC[C@]12C [Compound 2, friedelanone]	70.8 ± 4.95 µM	> 93.9 µM	> 93.9 µM		> 93.9 µM	> 93.9 µM	> 1.33													
C=C(C)[C@@H]1CC[C@@]2(C)C1C1CCC3[C@@]4(C)CC[C@H](O)C(C)(C)C4CC[C@@]3(C)[C@]1(C)C[C@@H]2O (stereo partly drawn) [Compound 3, 16β-hydroxylupeol]	9.12 ± 1.02 µM	52.6 ± 5.11 µM	15.4 ± 0.96 µM		20.8 ± 1.53 µM	35.6 ± 3.29 µM	5.76	2.53	< 85 µM	3.41	1.47									
CC(=O)O[C@H]1CC[C@]2(C)[C@H]3CC=C4[C@@H]5CC(C)(C)CC[C@]5(C)CC[C@@]4(C)[C@]3(C)CC[C@H]2C1(C)C [Compound 4, β-amyrin acetate]	> 85.5 µM	> 85.5 µM	> 85.5 µM		> 85.5 µM	> 85.5 µM														
C=C(C)[C@@H]1CC[C@]2(C)CC[C@]3(C)[C@H](CC[C@@H]4[C@@]5(C)CC[C@H](OC(C)=O)C(C)(C)[C@@H]5CC[C@]43C)[C@@H]12 [Compound 5, lupeol acetate]	10.7 ± 0.75 µM	> 85.5 µM	> 85.5 µM		> 85.5 µM	> 85.5 µM	> 8.00													
CO[C@H]1[C@H](O)[C@@H](O)[C@@H](O)[C@@H](O)[C@@H]1O [Compound 6, 5-O-methyl-myo-inositol or sequoyitol]	167 ± 12 µM	> 206 µM	> 206 µM		> 206 µM	45.1 ± 3.42 µM	> 1.24				> 4.57									
COc1cc(O)c2c(=O)c(O[C@H]3OC(C)[C@@H](O)C(O)[C@H]3O)c(-c3ccc(O)c(O)c3)oc2c1 (stereo partly drawn) [Compound 7, rhamnitrin or 7-O-methylquercetin 3-O-rhamnoside]	60.9 ± 5.39 µM	52.3 µM	> 86.6 µM		> 86.6 µM	> 86.6 µM	0.86													
COc1cc(O)c2c(=O)c(O[C@H]3OC(C)[C@@H](O)C(O)[C@H]3O)c(-c3cc(O)c(O)c(O)c3)oc2c1 (stereo partly drawn) [Compound 8, europetin 3-O-rhamnoside or 7-O-methylmyricetin 3-O-rhamnoside]	16.7 ± 1.81 µM	> 83.7 µM	> 83.7 µM		> 83.7 µM	> 83.7 µM	> 5.00													
COc1cc2c(c(O)c1CC=C(C)C)C(=O)[C@H](O)[C@@H](c1ccc(O)cc1)O2 [Compound 9, thonningiol]	0.36 ± 0.01 µM	45.5 ± 4.17 µM	5.65 ± 0.03 µM	8.6	5.28 ± 0.06 µM	3.88 ± 0.04 µM	124.59		< 10 µM	8.05	11.72	2.67 fold	28.3%	11.6%	Go/G1	3.97 fold	4.46 fold	11.2%		
CC1(C)C=Cc2c(O)ccc(C3COc4cc(O)cc(O)c4C3=O)c2O1 (stereo not drawn) [Compound 10, glyasperin F]	11.1 ± 0.88 µM	> 113 µM	20.9 ± 1.64 µM	> 6.42	17.6 ± 1.39 µM	16.9 ± 1.2 µM	> 10.14		< 85 µM	> 5.41	> 6.69									
C=C(CO)C1Cc2cc3c(cc2O1)OCC1c2ccc(O)cc2OC31 (stereo not drawn) [Compound 11, seputhecarpan B]	11.9 ± 0.94 µM	> 118 µM	57.9 ± 3.89 µM	> 1.4	84.4 ± 6.32 µM	61.9 ± 4.2 µM	> 9.93		< 85 µM	> 2.04	> 1.91									
C=C(CO)C1Cc2cc3c(cc2O1)OCC1c2ccc(OC)cc2OC31 (stereo not drawn) [Compound 12, seputhecarpan C]	13.3 ± 0.67 µM	> 114 µM	37.8 ± 1.76 µM	> 1.69	67.3 ± 3.98 µM	76.7 ± 7.24 µM	> 8.55		< 85 µM	> 3.00	> 1.48									
C=CC(C)(C)c1cc2c(cc1O)OCC1c3ccc(OC)cc3OC21 (stereo not drawn) [Compound 13, seputhecarpan D]	9.78 ± 0.55 µM	> 118 µM	10.8 ± 1.11 µM	> 11.3	10.5 ± 0.48 µM	67.7 ± 5.18 µM	> 12.10			> 10.97		3.47 fold	31.1%	7.6%	Go/G1	4.66 fold	3.78 fold	12.9%	< 10 µM	
CC1(C)C=Cc2c(cc(O)c3c(=O)c4cc5c(c(O)c4oc23)OC(C)(C)C=C5)O1 [Compound 14, rheediaxanthone A]	> 102 µM	80.3 ± 5.42 µM	> 102 µM	35.5	3.15 ± 0.01 µM	14.6 ± 0.93 µM					5.50									
COc1cccc2c1C(=O)c1c(O)c3c(c(O)c1C2=O)C[C@@](O)(C(=O)CO)C[C@@H]3O[C@H]1C[C@H](N)[C@H](O)[C@H](C)O1 [Doxorubicin, doxorubicin, reference compound]	0.35 ± 0.05 µM	0.59 ± 0.01 µM	0.37 ± 0.05 µM			0.18 ± 0.03 µM						1.3 fold	60%	27.6%			2.40 fold	up to 26.0%		0.72 ± 0.13 µM
